The text below walks through data of article PMC6467771 (Journal of medicinal chemistry, 2019).

This test deals with FmlH (Escherichia coli, UniProt Q1RBS0). The format is binding, Escherichia coli (UPEC, CFT073). Particulars: for IC50: IC50, ELISA, FmlH binding to desialylated bovine submaxillary mucin, average of four or more replicates. On the technique in general: An ELISA detects its analyte on a solid surface through an enzyme-linked reagent.

A word on the IC50: it is the midpoint of a concentration-inhibition curve. Lower therefore signals higher potency. In the case of `CC(=O)NC1[C@H](Oc2ccccc2-c2cccc(NC(=O)C(F)(F)F)c2)O[C@H](CO)[C@H](O)[C@@H]1O` (stereo in doubt) [Compound 44, N-(2’-(((2S,3S,4R,5R)-3-Acetamido-4,5-dihydroxy-6 (hydroxymethyl)tetrahydro-2H-pyran-2-yl)oxy)-[1,1’-biphenyl]-3-yl)-2,2,2-trifluoroacetamide], the IC50 is 370 nM. Still for that read-out and setting: next, `CC(=O)NC1[C@H](Oc2cccc(C)c2-c2cccc(NS(=O)(=O)N(C)C)c2)O[C@H](CO)[C@H](O)[C@@H]1O` (stereo in doubt) [Compound 87, N-((2S,3S,4R,5R)-2-((3’-((N,N-Dimethylsulfamoyl)amino)-6-methyl-[1,1’-biphenyl]-2-yl)oxy)-4,5-dihydroxy-6-(hydroxymethyl)-tetrahydro-2H-pyran-3-yl)acetamide]: 77 nM. Same read-out and setting: the same measure for `CC(=O)N[C@H]1[C@H](Oc2ccccc2-c2cc(C(=O)O)cc([N+](=O)[O-])c2)O[C@H](CO)[C@H](O)[C@@H]1O` [Compound 29, 2’-(((2S,3S/4R/5R)-3-Acetamido-4,5-dihydroxy-6-(hydroxymethyl)tetrahydro-2H-pyran-2-yl)oxy)-5-nitro-[1, 1’-bi-phenyl]-3-carboxylic Acid]: 2200 nM. For `O=C(O)c1cc(-c2ccccc2O[C@@H]2O[C@H](CO)[C@H](O)[C@H](O)[C@H]2O)cc([N+](=O)[O-])c1` [Compound 30, 5-Nitro-2’-(((2S,3R,4S,5R,6R)-3,4,5-trihydroxy-6-(hydroxymethyl)-tetrahydro-2H-pyran-2-yl)oxy)-[1,1’-biphenyl]-3-carboxylic Acid], the IC50 was found to be 280 nM. Further, for the setting “ELISA IC50 ratio, 50 vs 51, 30 vs 29”, the “fold more potent than the matched pair Gal/GalNAc derivative” value is 6 fold. `COc1ccc(C(=O)O)cc1-c1ccccc1O[C@@H]1O[C@H](CO)[C@H](O)[C@H](O)[C@H]1NC(C)=O` [Compound 31, 2’-(((2S,3R,4R,5R,6R)-3-Acetamido-4,5-dihydroxy-6 (hydroxymethyl)tetrahydro-2H-pyran-2-yl)oxy)-6-methoxy-[1,1’- biphenyl]-3-carboxylic Acid] returned an IC50 of 3900 nM. Further, the “fold drop in activity relative to 1” value (ELISA IC50 ratio) was 6 fold.

As to `CC(=O)N[C@H]1[C@H](Oc2ccccc2-c2cccc(O)c2)O[C@H](CO)[C@H](O)[C@@H]1O` [Compound 32, N-((2S,3R,4R,5R,6R)-4,5-Dihydroxy-2-((3’-hydroxy-[1,1’ biphenyl]-2-yl)oxy)-6-(hydroxymethyl)tetrahydro-2H-pyran-3-yl)-acetamide], the IC50 was determined as 700 nM.

`CC(=O)N[C@H]1[C@H](Oc2ccccc2-c2cccc(OS(C)(=O)=O)c2)O[C@H](CO)[C@H](O)[C@@H]1O` [Compound 33, 2’-(((2S,3R,4R,5R,6R)-3-Acetamido-4,5-dihydroxy-6-(hydroxymethyl)tetrahydro-2H-pyran-2-yl)oxy)-[1,1’-biphenyl]-3-yl methanesulfonate]: the IC50 came to 890 nM. `COc1ccc(O)cc1-c1ccccc1O[C@@H]1O[C@H](CO)[C@H](O)[C@H](O)[C@H]1NC(C)=O` [Compound 34, N-((2S,3R,4R,5R,6R)-4,5-Dihydroxy-2-((5’-hydroxy-2’ methoxy-[1,1’-biphenyl]-2-yl)oxy)-6-(hydroxymethyl)tetrahydro-2H-pyran-3-yl)acetamide] registered a half-inhibitory concentration (IC50) of 510 nM. This IC50 lies about 1.7-fold lower than the previous one. The same measure, in the same setting: the same measure for `COc1ccc(OS(C)(=O)=O)cc1-c1ccccc1O[C@@H]1O[C@H](CO)[C@H](O)[C@H](O)[C@H]1NC(C)=O` [Compound 35, 2’-(((2S,3R,4R,5R,6R)-3-Acetamido-4,5-dihydroxy-6 (hydroxymethyl)tetrahydro-2H-pyran-2-yl)oxy)-6-methoxy-[1,1’-biphenyl]-3-yl Methanesulfonate]: 3700 nM; for `CC(=O)N[C@H]1[C@H](Oc2ccccc2-c2cccc(F)c2)O[C@H](CO)[C@H](O)[C@@H]1O` [Compound 36, N-((2S,3R,4R,5R,6R)-2-((3 ‘-Fluoro-[1,1’-biphenyl]-2-yl)oxy)-4,5-dihydroxy-6-(hydroxymethyl)tetrahydro-2H-pyran-3-yl)acetamide]: 1500 nM; for `COc1cccc(-c2ccccc2O[C@@H]2O[C@H](CO)[C@H](O)[C@H](O)[C@H]2NC(C)=O)c1` [Compound 37, N-((2S,3R,4R,5R,6R)-4,5-Dihydroxy-6-(hydroxymethyl)-2-((3’-me-thoxy-[1,1’-biphenyl]-2-yl)oxy)tetrahydro-2H-pyran-3-yl)-acetamide]: 2000 nM. The same measure, in the same setting: next, `CC(=O)N[C@H]1[C@H](Oc2ccccc2-c2cccc([N+](=O)[O-])c2)O[C@H](CO)[C@H](O)[C@@H]1O` [Compound 38, N-((2S,3R,4R,5R,6R)-4,5-Dihydroxy-6-(hydroxymethyl)-2-((3’-nitro-[1,1’-biphenyl]-2-yl)oxy)tetrahydro-2H-pyran-3-yl)acetamide]: 2700 nM; `CC(=O)N[C@H]1[C@H](Oc2ccccc2-c2cccc(C#N)c2)O[C@H](CO)[C@H](O)[C@@H]1O` [Compound 39, N-((2S,3R,4R,5R,6R)-2-((3’-Cyano-[1,1’-biphenyl]-2-yl)oxy)-4,5-dihydroxy-6-(hydroxymethyl)tetrahydro-2H-pyran-3-yl)acetamide]: 970 nM. Still for that read-out and setting: next, `CC(=O)N[C@H]1[C@H](Oc2ccccc2-c2cccc(C(F)(F)F)c2)O[C@H](CO)[C@H](O)[C@@H]1O` [Compound 40, N-((2S,3R,4R/5R/6R)-4/5-Dihydroxy-6-(hydroxymethyl)-2-((3’-(tri-fluoromethyl)-[1,1’-biphenyl]-2-yl)oxy)tetrahydro-2H-pyran-3-yl) acetamide]: 1500 nM. In turn, `CC(=O)N[C@H]1[C@H](Oc2ccccc2-c2cccc(S(C)(=O)=O)c2)O[C@H](CO)[C@H](O)[C@@H]1O` [Compound 41, N-((2S,3R,4R,5R,6R)-4,5-Dihydroxy-6-(hydroxymethyl)-2-((3’- (methylsulfonyl)-[1,1’-biphenyl]-2-yl)oxy)tetrahydro-2H-pyran-3-yl)acetamide] came in with an IC50 of 700 nM. Against the preceding molecule, the IC50 is about 2.1-fold lower. Still for that read-out and setting: the same measure for `CC(=O)N[C@H]1[C@H](Oc2ccccc2-c2cccc(CO)c2)O[C@H](CO)[C@H](O)[C@@H]1O` [Compound 42, N-((2S,3R,4R/5R/6R)-4/5-Dihydroxy-6-(hydroxymethyl)-2-((3’-(hy-droxymethyl)-[1,1’-biphenyl]-2-yl)oxy)tetrahydro-2H-pyran-3-yl)-acetamide]: 630 nM; for `CC(=O)Nc1cccc(-c2ccccc2O[C@@H]2O[C@H](CO)[C@H](O)[C@H](O)[C@H]2NC(C)=O)c1` [Compound 43, N-(2’-(((2S,3R,4R,5R,6R)-3-Acetamido-4,5-dihydroxy-6-(hydroxymethyl)tetrahydro-2H-pyran-2-yl)oxy)-[1,1’-biphenyl]-3-yl)acetamide]: 310 nM. Same read-out and setting: next, `COC(=O)Nc1cccc(-c2ccccc2O[C@@H]2O[C@H](CO)[C@H](O)[C@H](O)[C@H]2NC(C)=O)c1` [Compound 45, Methyl(2’-(((2S,3R/4R/5R,6R)-3-Acetamido-4/5-dihydroxy-6-(hydroxymethyl)tetrahydro-2H-pyran-2-yl)oxy)-[1,1’-biphenyl]-3 yl)carbamate]: 630 nM; `CC(=O)N[C@H]1[C@H](Oc2ccccc2-c2cccc(C(=O)N(C)C)c2)O[C@H](CO)[C@H](O)[C@@H]1O` [Compound 46, 2’-(((2S,3R,4R,5R,6R)-3-Acetamido-4,5-dihydroxy-6-(hydroxymethyl)tetrahydro-2H-pyran-2-yl)oxy)-N,N-dimethyl-[1,1’- biphenyl]-3-carboxamide]: 3100 nM.
